Source: ChEMBL document CHEMBL5579877, “Design and Evaluation of 3-Phenyloxetane Derivative Agonists of the Glucagon-Like Peptide-1 Receptor” (J Med Chem, 2024)
Activity calls are given as the source filed them. The calls are words filed in the database; no cut-off is given here.

Columns and labels:
Cytochrome P450 2D6 = Cytochrome P450 2D6 (Homo sapiens, UniProt P10635); test: Inhibition of CYP2D6 in human liver microsomes using dextromethorphan as substrate preincubated for 5 mins followed by NADPH addition and measured after 20 mins by LC-MS/MS analysis; assay type: ADME, Microsome
[1] = Oral clearance in ICR mouse at 5 mg/kg, po by LC-MS/MS analysis; assay type: ADME, organism-based; conditions: in vivo
[2] = Half-life in rat at 5 mg/kg, po by LC-MS/MS analysis; assay type: ADME, organism-based; conditions: in vivo
Cytochrome P450 2B6 = biological target: T1, Cytochrome P450 2B6 (Homo sapiens, UniProt P20813); test: Inhibition of CYP2B6 in human liver microsomes using bupropion as substrate preincubated for 5 mins followed by NADPH addition and measured after 10 mins by LC-MS/MS analysis; assay type: ADME, Microsome
T1 sequence (P20813 whole entry): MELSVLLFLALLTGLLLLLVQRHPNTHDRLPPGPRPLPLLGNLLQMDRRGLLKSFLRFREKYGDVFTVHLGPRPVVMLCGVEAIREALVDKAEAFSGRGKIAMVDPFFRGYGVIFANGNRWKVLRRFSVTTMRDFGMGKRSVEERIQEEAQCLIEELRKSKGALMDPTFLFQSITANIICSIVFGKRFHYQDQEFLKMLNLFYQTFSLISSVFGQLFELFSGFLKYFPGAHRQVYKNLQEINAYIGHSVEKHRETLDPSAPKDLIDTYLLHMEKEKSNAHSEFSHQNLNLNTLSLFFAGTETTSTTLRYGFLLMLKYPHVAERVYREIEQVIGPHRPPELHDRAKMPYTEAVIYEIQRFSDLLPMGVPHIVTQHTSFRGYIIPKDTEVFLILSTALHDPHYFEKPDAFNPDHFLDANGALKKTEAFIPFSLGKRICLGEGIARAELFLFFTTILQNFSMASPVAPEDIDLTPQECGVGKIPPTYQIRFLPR

[3] = Oral bioavailability in rat at 5 mg/kg by LC-MS/MS analysis; assay type: ADME, organism-based; conditions: in vivo
Cytochrome P450 3A4 [4] = biological target: T2, Cytochrome P450 3A4 (Homo sapiens, UniProt P08684); test: Inhibition of CYP3A4 in human liver microsomes using midazolam as substrate preincubated for 5 mins followed by NADPH addition and measured after 5 mins by LC-MS/MS analysis; assay type: ADME, Microsome
[5] = Cmax in rat at 5 mg/kg, po by LC-MS/MS analysis; assay type: ADME, organism-based; conditions: in vivo
[6] = Half-life in rat at 2 mg/kg, iv by LC-MS/MS analysis; assay type: ADME, organism-based; conditions: in vivo
[7] = AUC in ICR mouse at 5 mg/kg, po by LC-MS/MS analysis; assay type: ADME, organism-based; conditions: in vivo
[8] = Half-life in ICR mouse at 2 mg/kg, iv by LC-MS/MS analysis; assay type: ADME, organism-based; conditions: in vivo
[9] = AUC in rat at 5 mg/kg, po by LC-MS/MS analysis; assay type: ADME, organism-based; conditions: in vivo
Cytochrome P450 3A4 [10] = biological target: T2, Cytochrome P450 3A4; test: Inhibition of CYP3A4 in human liver microsomes using testosterone as substrate preincubated for 5 mins followed by NADPH addition and measured after 5 mins by LC-MS/MS analysis; assay type: ADME, Microsome
[11] = Permeability across basolateral to apical side in human Caco-2 cells at 10 uM incubated for 120 mins by LC-MS/MS analysis; assay type: ADME, cell-based; conditions: read-out: permeability
[12] = Half-life in ICR mouse at 5 mg/kg, po by LC-MS/MS analysis; assay type: ADME, organism-based; conditions: in vivo
Cytochrome P450 1A2 = biological target: T3, Cytochrome P450 1A2 (Homo sapiens, UniProt P05177); test: Inhibition of CYP1A2 in human liver microsomes using phenacetin as substrate preincubated for 5 mins followed by NADPH addition and measured after 10 mins by LC-MS/MS analysis; assay type: ADME, Microsome
T3 sequence (P05177 whole entry): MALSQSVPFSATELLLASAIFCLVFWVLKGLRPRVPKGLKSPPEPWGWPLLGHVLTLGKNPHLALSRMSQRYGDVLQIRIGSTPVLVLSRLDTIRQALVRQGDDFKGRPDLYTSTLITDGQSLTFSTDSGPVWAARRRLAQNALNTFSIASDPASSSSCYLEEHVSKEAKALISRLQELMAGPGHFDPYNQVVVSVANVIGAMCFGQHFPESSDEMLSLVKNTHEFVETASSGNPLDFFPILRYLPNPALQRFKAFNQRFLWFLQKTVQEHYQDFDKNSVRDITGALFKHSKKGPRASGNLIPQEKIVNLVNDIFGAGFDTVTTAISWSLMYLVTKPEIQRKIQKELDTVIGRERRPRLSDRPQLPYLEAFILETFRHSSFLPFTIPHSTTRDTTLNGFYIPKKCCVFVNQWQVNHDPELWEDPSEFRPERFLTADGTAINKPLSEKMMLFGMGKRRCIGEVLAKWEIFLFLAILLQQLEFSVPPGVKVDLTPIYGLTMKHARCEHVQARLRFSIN

[13] = Oral bioavailability in cynomolgus monkey at 20 mg/kg; assay type: ADME, organism-based, Macaca fascicularis; conditions: in vivo
[14] = Oral bioavailability in ICR mouse at 5 mg/kg by LC-MS/MS analysis; assay type: ADME, organism-based; conditions: in vivo
[15] = AUC in rat at 2 mg/kg, iv by LC-MS/MS analysis; assay type: ADME, organism-based; conditions: in vivo
[16] = Cmax in cynomolgus monkey at 2 mg/kg, iv; assay type: ADME, organism-based, Macaca fascicularis; conditions: in vivo
[17] = Oral clearance in rat at 5 mg/kg, po by LC-MS/MS analysis; assay type: ADME, organism-based; conditions: in vivo
[18] = Metabolic stability in human liver microsomes assessed as half life at […] incubated upto 45 mins in presence of NADPH by LC-MS/MS analysis; assay type: ADME, Microsome
Mus musculus = test: Reduction in blood glucose level in human GLP-1R knock-in mouse at 1 mg/kg, po pretreated for 1 to 4 hrs followed by glucose addition and measured upto 120 mins by glucose meter; assay type: functional, organism-based; conditions: time 180-360 min
Cytochrome P450 2C19 = Cytochrome P450 2C19 (Homo sapiens, UniProt P33261); test: Inhibition of CYP2C19 in human liver microsomes using S-mephenytoin as substrate preincubated for 5 mins followed by NADPH addition and measured after 45 mins by LC-MS/MS analysis; assay type: ADME, Microsome
[19] = Apparent volume of distribution in rat at 2 mg/kg, iv by LC-MS/MS analysis; assay type: ADME, organism-based; conditions: in vivo, read-out: Vz

T2 sequence (P08684 whole entry): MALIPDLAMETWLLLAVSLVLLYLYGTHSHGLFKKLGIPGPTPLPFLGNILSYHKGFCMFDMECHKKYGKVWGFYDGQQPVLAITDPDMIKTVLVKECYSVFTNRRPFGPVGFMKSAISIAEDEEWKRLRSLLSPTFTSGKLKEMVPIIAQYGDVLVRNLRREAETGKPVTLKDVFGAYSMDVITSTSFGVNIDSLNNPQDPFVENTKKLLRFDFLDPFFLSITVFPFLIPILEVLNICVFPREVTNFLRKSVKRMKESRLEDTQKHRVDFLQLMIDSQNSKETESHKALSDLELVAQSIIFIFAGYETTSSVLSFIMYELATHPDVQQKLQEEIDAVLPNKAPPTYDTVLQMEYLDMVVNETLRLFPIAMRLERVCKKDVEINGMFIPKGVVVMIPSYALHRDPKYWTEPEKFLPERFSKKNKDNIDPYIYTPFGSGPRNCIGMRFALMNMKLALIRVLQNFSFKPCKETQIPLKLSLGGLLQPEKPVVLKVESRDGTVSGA
Cytochrome P450 2C19, sequence (P33261 whole entry): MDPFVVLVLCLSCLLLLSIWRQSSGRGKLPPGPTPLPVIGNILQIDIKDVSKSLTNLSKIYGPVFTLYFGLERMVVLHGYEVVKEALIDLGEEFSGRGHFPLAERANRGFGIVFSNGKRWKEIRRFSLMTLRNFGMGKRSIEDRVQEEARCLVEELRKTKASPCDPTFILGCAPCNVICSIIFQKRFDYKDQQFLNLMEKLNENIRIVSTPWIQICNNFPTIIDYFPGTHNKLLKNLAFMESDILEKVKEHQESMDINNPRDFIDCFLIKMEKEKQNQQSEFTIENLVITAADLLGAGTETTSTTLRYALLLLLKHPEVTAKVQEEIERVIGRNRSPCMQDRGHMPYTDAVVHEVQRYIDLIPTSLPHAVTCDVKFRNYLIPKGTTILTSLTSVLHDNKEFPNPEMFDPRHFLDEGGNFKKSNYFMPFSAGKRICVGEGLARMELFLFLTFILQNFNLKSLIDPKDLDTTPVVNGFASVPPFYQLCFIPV
Cytochrome P450 2D6, sequence (P10635 whole entry): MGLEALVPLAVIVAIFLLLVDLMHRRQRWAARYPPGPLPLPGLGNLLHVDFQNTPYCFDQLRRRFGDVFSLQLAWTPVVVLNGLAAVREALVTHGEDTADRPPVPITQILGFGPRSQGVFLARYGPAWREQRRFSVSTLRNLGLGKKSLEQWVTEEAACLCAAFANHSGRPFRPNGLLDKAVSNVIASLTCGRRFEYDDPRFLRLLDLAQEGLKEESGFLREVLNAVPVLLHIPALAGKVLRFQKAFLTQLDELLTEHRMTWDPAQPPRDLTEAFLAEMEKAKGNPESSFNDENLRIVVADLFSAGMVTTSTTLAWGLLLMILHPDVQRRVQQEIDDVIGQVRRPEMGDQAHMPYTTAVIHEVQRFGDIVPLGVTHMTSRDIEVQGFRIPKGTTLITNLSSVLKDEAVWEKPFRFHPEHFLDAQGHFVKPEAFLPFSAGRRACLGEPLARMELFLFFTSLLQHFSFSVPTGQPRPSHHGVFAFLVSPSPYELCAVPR

Compound	IC50 (Cytochrome P450 2D6) [µM]	CL/F [1] [mL/min/kg]	half-life [2] [h]	IC50 (Cytochrome P450 2B6) [µM]	bioavailability [3] [%]	IC50 (Cytochrome P450 3A4 [4]) [µM]	Cmax [5] [ng/mL]	half-life [6] [h]	AUC [7] [ng·h/mL]	half-life [8] [h]	AUC [9] [ng·h/mL]	IC50 (Cytochrome P450 3A4 [10]) [µM]	Papp B→A at 2 h, 10 µM [11] [×10⁻⁶ cm/s]	half-life [12] [h]	IC50 (Cytochrome P450 1A2) [µM]	bioavailability [13] [%]	bioavailability [14] [%]	AUC [15] [ng·h/mL]	Cmax [16] [nM]	CL/F [17] [mL/min/kg]	also measured
N#Cc1ccc(COc2cccc(C3CCN(Cc4nc5ccc(C(=O)O)cc5n4C[C@@H]4CCO4)CC3)n2)c(F)c1 [DANUGLIPRON]	> 10	36.5	1.33	> 10	10.2	> 10	110	0.32	2280	2.46	170	> 10	21.7	1.62	> 10	3.41	54.2	520	670	554	half-life [18]: 1.87 h; Activity (Mus musculus): Active; IC50 (Cytochrome P450 2C19): > 10 µM; Vd [19]: 1.98 L/kg
O=C(O)c1ccc2nc(CN3CCC(c4cccc(OCc5ccc(C6COC6)cc5F)n4)CC3)n(C[C@@H]3CCO3)c2c1	> 10	41.8	0.84	> 10	12.8	> 10	190	0.21	3000	7.04	180	> 10	16.5	3.86	> 10	32.8	53.1	530	207	52.8	half-life [18]: 2.17 h; Activity (Mus musculus): Active; IC50 (Cytochrome P450 2C19): > 10 µM; Vd [19]: 1.37 L/kg
